Laboratory results as given in patent US6242173A, “Immunoassays for catalytically-active, serine proteases” (University of Vermont and State Agriculatural College, priority 1992, dated 2001).
“Also recorded” adds a separate entry of the source.

What was measured:
Human Xa [1] = target: T1, Human Xa (Homo sapiens, UniProt P00742); assay: Fluorophore-protein ratios by absorbance; type: binding; conditions: isolated labeled protein
T1 construct: from tissue; host or cells: fresh frozen human plasma
T1 sequence (P00742 235-488 limits assumed): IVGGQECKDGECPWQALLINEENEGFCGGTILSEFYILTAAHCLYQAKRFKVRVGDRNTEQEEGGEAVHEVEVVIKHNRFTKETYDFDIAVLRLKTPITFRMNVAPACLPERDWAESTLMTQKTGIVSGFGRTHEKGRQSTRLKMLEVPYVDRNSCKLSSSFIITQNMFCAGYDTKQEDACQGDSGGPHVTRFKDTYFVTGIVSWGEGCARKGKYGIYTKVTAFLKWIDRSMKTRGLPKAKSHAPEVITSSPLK
T1 sequence (P00742 41-179 partner limits assumed): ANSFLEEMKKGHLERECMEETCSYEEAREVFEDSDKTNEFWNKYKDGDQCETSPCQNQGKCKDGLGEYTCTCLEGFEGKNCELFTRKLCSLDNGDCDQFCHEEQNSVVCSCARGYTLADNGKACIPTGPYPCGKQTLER

bovine Xa = bovine Xa (Bos taurus, UniProt P00743); assay: Fluorophore-protein ratios by absorbance; type: binding; conditions: isolated labeled protein
Sequence of bovine Xa (P00743 234-492 limits assumed): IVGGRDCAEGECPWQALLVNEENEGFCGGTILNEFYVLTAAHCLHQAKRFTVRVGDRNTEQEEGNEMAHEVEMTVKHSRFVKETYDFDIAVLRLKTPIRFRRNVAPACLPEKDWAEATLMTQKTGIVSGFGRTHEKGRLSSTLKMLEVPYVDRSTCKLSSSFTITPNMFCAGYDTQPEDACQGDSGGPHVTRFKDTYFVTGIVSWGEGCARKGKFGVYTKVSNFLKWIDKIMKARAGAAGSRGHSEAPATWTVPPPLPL
Sequence of bovine Xa (P00743 41-180 partner limits assumed): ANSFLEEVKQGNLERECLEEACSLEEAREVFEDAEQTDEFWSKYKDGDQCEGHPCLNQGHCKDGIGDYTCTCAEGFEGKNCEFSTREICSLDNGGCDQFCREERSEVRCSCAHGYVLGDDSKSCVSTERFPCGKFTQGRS

avidin = avidin (Gallus gallus, UniProt P02701); assay: Avidin-biotin interaction (fluorescein-avidin, avidin-acrylic, avidin-peroxidase blotting); conditions: free compound, column fractions in 1.0 mM HCl
Sequence of avidin (P02701 25-152): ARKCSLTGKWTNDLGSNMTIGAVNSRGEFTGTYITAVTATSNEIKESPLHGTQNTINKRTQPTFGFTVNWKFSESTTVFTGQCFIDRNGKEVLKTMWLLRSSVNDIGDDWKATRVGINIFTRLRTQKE

factor VIIa (hVIIa) = target: T2, factor VIIa (hVIIa) (Homo sapiens, UniProt P08709); assay: Screening of protein/BC-PPACK reactions, avidin-biotin-peroxidase blot; type: binding; conditions: 10 fold molar excess twice, overnight
T2 construct: Human factor VII was converted to VIIa by incubation for 1 hour with a 0.2% (w/w) aliquot of human Xa; from tissue; host or cells: fresh frozen human plasma; VII converted to VIIa with human Xa, or VIIa already present in the isolate
T2 sequence (P08709 213-466 limits assumed): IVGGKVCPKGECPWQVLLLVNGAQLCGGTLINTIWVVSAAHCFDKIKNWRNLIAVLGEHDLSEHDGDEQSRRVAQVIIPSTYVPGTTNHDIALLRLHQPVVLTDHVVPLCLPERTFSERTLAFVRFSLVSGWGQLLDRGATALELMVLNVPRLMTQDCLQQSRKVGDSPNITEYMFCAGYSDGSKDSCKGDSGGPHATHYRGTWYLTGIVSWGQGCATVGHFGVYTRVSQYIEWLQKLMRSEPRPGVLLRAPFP
T2 sequence (P08709 61-212 partner limits assumed): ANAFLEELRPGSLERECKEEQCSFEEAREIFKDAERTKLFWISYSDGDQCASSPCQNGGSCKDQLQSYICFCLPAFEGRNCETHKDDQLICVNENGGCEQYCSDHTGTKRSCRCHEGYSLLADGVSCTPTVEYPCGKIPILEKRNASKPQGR
Protocol: (§1) Samples of purified enzymes, zymogens, or enzyme-zymogen mixtures were treated with BC-PPACK as follows: 10-30 μg samples of protein at 0.5 mg/mL in Hepes (20 mM)/NaCl (150 mM) pH=7.4 was reacted with 10 fold molar excess of BC-PPACK for 30 minutes, followed by a second 10 fold aliquot and overnight incubation at room temperature. Samples were then reduced with 2-mercapto-ethanol and prepared for PAGE gel electrophoresis either on 12×12 cm or PhastGel systems. After electrophoresis, the gels were blotted to nitrocellulose using tris/glycine methanol transfer buffer. The nitrocellulose was then blocked with TWEEN reagent, washed with tris/glycine and reacted with avidin-biotin-peroxidase. Development with 4-chloronapthtalene visualized the biotinylated proteins.

plasmin (hPm) = target: T3, plasmin (hPm) (Homo sapiens, UniProt P00747); assay: as above; type: binding; conditions: 10 fold molar excess twice, overnight
T3 construct: Plasmin was prepared from plasminogen by treatment with 1:200 (weight:weight) of urokinase; from tissue; host or cells: human plasma (lysine-Sepharose)
T3 sequence (P00747 581-810 limits assumed): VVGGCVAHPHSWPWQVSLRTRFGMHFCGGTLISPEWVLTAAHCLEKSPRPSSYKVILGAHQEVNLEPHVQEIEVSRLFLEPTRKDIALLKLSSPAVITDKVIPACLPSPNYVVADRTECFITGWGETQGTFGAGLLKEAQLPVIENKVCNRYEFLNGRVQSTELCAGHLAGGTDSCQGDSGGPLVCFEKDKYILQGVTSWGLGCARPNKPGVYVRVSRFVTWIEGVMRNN
T3 sequence (P00747 97-580 partner limits assumed): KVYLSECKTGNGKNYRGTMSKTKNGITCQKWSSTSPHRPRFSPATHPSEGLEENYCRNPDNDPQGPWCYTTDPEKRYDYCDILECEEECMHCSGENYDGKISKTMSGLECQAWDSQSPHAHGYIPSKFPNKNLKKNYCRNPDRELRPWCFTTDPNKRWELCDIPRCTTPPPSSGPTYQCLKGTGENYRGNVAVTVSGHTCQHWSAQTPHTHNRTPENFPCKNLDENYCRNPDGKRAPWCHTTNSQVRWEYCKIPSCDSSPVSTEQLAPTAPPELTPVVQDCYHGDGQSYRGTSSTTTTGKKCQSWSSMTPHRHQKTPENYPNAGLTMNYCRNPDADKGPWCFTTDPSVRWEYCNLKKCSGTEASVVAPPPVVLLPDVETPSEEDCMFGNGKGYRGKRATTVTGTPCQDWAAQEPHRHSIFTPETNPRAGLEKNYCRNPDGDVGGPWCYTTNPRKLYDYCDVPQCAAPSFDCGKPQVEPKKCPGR
Protocol: as §1

thrombin (hIIa) = target: T4, thrombin (hIIa) (Homo sapiens, UniProt P00734); assay: as above; type: binding; conditions: 10 fold molar excess twice, overnight
T4 construct: from tissue; host or cells: fresh frozen human plasma
Protocol: as §1

factor Xa (hXa) = target: T5, factor Xa (hXa) (Homo sapiens, UniProt P00742); assay: as above; type: binding; conditions: 10 fold molar excess twice, overnight
T5 construct: from tissue; host or cells: fresh frozen human plasma
T5 sequence (P00742 235-488 limits assumed): as the sequence (P00742 235-488 limits assumed) above
T5 sequence (P00742 41-179 partner limits assumed): as the sequence (P00742 41-179 partner limits assumed) above
Protocol: as §1

hVII = target: T6, hVII (Homo sapiens, UniProt P08709); assay: as above; type: binding; conditions: zymogen; 10 fold molar excess twice, overnight
T6 construct: Except as noted, all proteins were isolated from fresh frozen human plasma; from tissue; host or cells: fresh frozen human plasma
T6 sequence (P08709 61-466): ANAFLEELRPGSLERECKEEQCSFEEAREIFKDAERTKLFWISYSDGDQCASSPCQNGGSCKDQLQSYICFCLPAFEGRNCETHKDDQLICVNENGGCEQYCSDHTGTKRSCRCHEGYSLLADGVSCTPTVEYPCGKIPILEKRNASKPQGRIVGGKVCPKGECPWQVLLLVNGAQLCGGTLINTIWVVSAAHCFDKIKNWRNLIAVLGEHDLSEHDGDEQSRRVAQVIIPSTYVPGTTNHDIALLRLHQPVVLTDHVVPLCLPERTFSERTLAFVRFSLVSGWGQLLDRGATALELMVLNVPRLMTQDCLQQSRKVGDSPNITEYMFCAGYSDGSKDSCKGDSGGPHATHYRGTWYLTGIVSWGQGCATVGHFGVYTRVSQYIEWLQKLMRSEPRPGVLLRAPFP
Protocol: as §1

hII = target: T7, hII (Homo sapiens, UniProt P00734); assay: as above; type: binding; conditions: zymogen; 10 fold molar excess twice, overnight
T7 construct: Except as noted, all proteins were isolated from fresh frozen human plasma; from tissue; host or cells: fresh frozen human plasma
Protocol: as §1

hX = target: T8, hX (Homo sapiens, UniProt P00742); assay: as above; type: binding; conditions: zymogen; 10 fold molar excess twice, overnight
T8 construct: Except as noted, all proteins were isolated from fresh frozen human plasma; from tissue; host or cells: fresh frozen human plasma
T8 sequence (P00742 183-488 limits assumed): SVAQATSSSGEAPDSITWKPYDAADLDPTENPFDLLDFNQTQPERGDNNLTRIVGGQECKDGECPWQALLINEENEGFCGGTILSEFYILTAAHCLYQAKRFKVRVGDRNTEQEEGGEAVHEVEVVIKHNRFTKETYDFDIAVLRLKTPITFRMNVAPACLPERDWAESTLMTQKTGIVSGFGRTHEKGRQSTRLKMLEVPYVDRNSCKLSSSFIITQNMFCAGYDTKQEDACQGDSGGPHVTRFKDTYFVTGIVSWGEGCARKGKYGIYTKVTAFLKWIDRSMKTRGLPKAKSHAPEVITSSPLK
T8 sequence (P00742 41-179 partner limits assumed): as the sequence (P00742 41-179 partner limits assumed) above
Protocol: as §1

hPg = target: T9, hPg (Homo sapiens, UniProt P00747); assay: as above; type: binding; conditions: zymogen; 10 fold molar excess twice, overnight
T9 construct: Plasminogen was isolated by passing thawed, aprotinin treated plasma over lysine-Sepharose; from tissue; host or cells: human plasma (lysine-Sepharose)
T9 sequence (P00747 20-810 limits assumed): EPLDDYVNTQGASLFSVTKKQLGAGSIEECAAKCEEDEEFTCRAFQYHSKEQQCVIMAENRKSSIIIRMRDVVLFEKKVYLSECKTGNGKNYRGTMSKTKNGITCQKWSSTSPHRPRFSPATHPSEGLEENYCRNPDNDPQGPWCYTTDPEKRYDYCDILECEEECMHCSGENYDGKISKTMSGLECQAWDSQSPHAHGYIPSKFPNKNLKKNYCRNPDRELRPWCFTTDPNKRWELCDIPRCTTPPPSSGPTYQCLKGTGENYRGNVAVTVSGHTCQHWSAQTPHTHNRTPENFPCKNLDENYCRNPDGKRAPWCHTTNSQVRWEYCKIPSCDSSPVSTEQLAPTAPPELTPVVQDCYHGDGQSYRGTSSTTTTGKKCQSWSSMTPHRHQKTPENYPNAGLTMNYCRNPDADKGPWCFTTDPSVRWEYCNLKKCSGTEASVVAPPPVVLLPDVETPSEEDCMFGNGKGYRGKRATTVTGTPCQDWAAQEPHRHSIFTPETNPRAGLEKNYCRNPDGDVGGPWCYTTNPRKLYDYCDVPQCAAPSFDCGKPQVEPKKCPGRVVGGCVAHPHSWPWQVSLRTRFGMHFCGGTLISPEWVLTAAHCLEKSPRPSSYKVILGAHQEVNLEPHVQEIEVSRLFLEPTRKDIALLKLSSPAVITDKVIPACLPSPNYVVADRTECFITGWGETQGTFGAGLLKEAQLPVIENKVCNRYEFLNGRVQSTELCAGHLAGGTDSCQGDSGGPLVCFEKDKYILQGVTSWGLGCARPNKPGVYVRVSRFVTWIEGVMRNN
Protocol: as §1

[2] = system: tissue plasminogen activator (tTPA) (1 and 2 chain); assay: as above; type: binding, human; conditions: 10 fold molar excess twice, overnight
Sequence of tissue plasminogen activator (tTPA) (1 and 2 chain) (P00750 311-562 limits assumed): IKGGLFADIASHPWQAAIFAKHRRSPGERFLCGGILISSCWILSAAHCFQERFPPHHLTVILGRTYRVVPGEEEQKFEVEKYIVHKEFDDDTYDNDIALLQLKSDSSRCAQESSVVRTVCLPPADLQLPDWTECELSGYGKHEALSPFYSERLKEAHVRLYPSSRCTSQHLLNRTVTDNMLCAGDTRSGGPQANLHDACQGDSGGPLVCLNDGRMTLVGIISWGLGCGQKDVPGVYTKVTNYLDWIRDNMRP
Protocol: as §1
Plasminogen was isolated by passing thawed, aprotinin treated plasma over lysine-Sepharose and eluting the bound plasminogen with ε-aminocaproic acid (ECAC) (Castellino, F. J. and Powell, J. R. (1980) Methods Enzymol. 80:365-378). A second pass over the lysine SEPHAROSE gel, followed by separation from aprotinin on SEPHAROSE gel G-100 gave plasminogen which was homogeneous when evaluated by gel electrophoresis. Plasmin was prepared from plasminogen by treatment with 1:200 (weight:weight) of urokinase in Hepes/saline. Tissue plasminogen activator (tPA) was recombinant human tPA (Genentech) and contained both single chain and two chain forms. Urokinase was a generous gift from Dr. David Stump and was two chain.

Human Xa [3] = target: T1, Human Xa; assay: Reaction of Human Xa with BC-PPACK, residual activity vs. S2222; type: biochemical
tissue factor = tissue factor (Homo sapiens, UniProt P13726); assay: Blocking of tissue factor, tissue factor specific activity; type: biochemical
Sequence of tissue factor (P13726 33-295): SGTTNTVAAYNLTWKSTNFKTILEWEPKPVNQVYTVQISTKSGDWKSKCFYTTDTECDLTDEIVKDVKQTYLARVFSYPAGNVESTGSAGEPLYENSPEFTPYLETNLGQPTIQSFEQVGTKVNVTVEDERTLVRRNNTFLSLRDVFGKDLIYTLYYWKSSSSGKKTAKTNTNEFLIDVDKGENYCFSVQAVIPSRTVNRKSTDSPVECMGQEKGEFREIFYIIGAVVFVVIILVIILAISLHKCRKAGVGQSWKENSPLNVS

factor VIIa = target: T10, factor VIIa (Homo sapiens, UniProt P08709); assay: Removal of active enzyme from zymogen with biotinylated chloromethyl ketone and avidin matrix; conditions: human factor VII containing factor VIIa; listed as BioCap-YGRck
T10 construct: Human factor VII was converted to VIIa by incubation for 1 hour with a 0.2% (w/w) aliquot of human Xa; from tissue; host or cells: fresh frozen human plasma; VII converted to VIIa with human Xa, or VIIa already present in the isolate
T10 sequence (P08709 213-466 limits assumed): T2 sequence (P08709 213-466 limits assumed)
T10 sequence (P08709 61-212 partner limits assumed): T2 sequence (P08709 61-212 partner limits assumed)

activated human plasma = assay: Reaction of activated human plasma with BC-YGR-CK, blot; conditions: thromboplastin and Ca+2 (4 mM) activated plasma, timed aliquots, final CK concentration 1.2 μM
Protocol: Normal human plasma (200 μL) at 37° C. was activated with thromboplastin (10 μL) and Ca^+2 (4 mM). At timed intervals, 20 uL aliquots were removed and added to 2 μL aliquots of […] BC-YGR-CK (final CK concentration was 1.2 μM). A clot was observed after 122 seconds. The samples were then run on PhastGel electrophoresis and blotted to nitrocellulose.

thrombin = target: T11, thrombin (Homo sapiens, UniProt P00734); assay: Blocking of the reaction of thrombin with synthetic substrate S2238; type: biochemical; conditions: solution in 1.0 mM HCl
T11 construct: from tissue; host or cells: fresh frozen human plasma
Protocol: FPRck.2HCl (Calbiochem) (5.0 mg, […]) was dissolved in methanol (1.0 mL) and treated with 2,6-dansyl chloride (Molecular Probes) (2.6 mg, 9.5 μmoles) in DMF (1.0 mL). The solution was mixed and treated with 4-methylmorpholine (20 μL, 16 μmoles). After 20 minutes at 25° C., the reaction was stopped by addition of 1.0 M HCl (100 μL) and the mixture was applied directly to a SEPHADEX LH-20 column (1×30 cm, in methanol). The elution was followed by fluorescence, A280, Sakaguchi stain and thin layer chromatography. The product appeared as a single fluorescent, Sakaguchi positive spot Rf =0.14 (2:1 chloroform:methanol on Bakerflex silica gel). The pooled sample was evaporated to an oil and taken up in 1.0 mM HCl. […] The solution was lyophilized to an oil which was taken up in 10.0 mM HCl (3.8 mL) and frozen. Final concentration (determined by A360) was 1.0 mM. Yield was 3.8 μmoles or 40%.
Factor Xa: In a one mL cuvette, 22.5 μM S2222 in Hepes/saline pH=7.4 was treated with 1-10 μL of the factor Xa preparation. The mixture was stirred briefly and the absorbance at 405 nm followed in a Cary 219 UV/visible spectrophotometer. The rate was taken for the initial linear phase. Similar methods were used for thrombin (S2238), plasmin (S2251) and tPA (S2238). Hemker, H. C. (1983) in Handbook of Synthetic Substrates: For the Coagulation and Fibrinolytic Systems. Martinus Nijhogg Publishers, Boston.

| Molecule | biotinylated protein on blot (factor VIIa (hVIIa)) | biotinylated protein on blot (thrombin (hIIa)) | biotinylated protein on blot (factor Xa (hXa)) | biotinylated protein on blot (hVII) | biotinylated protein on blot (hII) | biotinylated protein on blot (hX) | biotinylated protein on blot [2] | other results |
| --- | --- | --- | --- | --- | --- | --- | --- | --- |
| 5 (and 6) Carboxylfluoresceinyl-L-glutamylglycyl-L-arginine chloromethyl ketone hydrochloride [Fluoresceinyl-EGRCk] |  |  |  |  |  |  |  | Fluorophore/Protein (Human Xa [1]): 1.06 mole/mole; Fluorophore/Protein (bovine Xa): 1.02 mole/mole |
| Biotinyl-D-phenylalanyl-L-prolyl-L-arginine Chloromethyl Ketone [Biotinyl-PPACK] | none of the proteins showed a positive blot | none of the proteins showed a positive blot | none of the proteins showed a positive blot | none of the proteins showed a positive blot | none of the proteins showed a positive blot | none of the proteins showed a positive blot | none of the proteins showed a positive blot | enhancement of the fluorescence of fluorescein-avidin (avidin): positive; biotinylated protein on blot (plasmin (hPm)): none of the proteins showed a positive blot; biotinylated protein on blot (hPg): none of the proteins showed a positive blot |
| biotinyl-ε-aminocaproyl-D-phenylalanyl-L-prolyl-L-arginine chloromethyl ketone [BC-PPACK] | positive | positive | positive | No reaction | No reaction | No reaction | positive | biotinylated protein on blot (plasmin (hPm)): positive; biotinylated protein on blot (hPg): No reaction; relative activity (vs. S2222) (Human Xa [3]; 0.46 equivalents added): 0.62; relative activity (vs. S2222) (Human Xa [3]; 0.92 equivalents added): 0.13; relative activity (vs. S2222) (Human Xa [3]; 1.38 equivalents added): 0.01; relative activity (vs. S2222) (Human Xa [3]; 1.84 equivalents added): 0.00; relative activity (vs. S2222) (Human Xa [3]; 2.76 equivalents added): 0.00 |
| O=C(O)c1cc[c]([Hg][Cl])cc1 [p-chloromercuribenzoate] |  |  |  |  |  |  |  | decrease of specific activity of tissue factor (tissue factor; 100 µM, 2 hours): 10-20% |
| NC(N)=NCCC[C@H](NC(=O)[C@@H]1CCCN1C(=O)[C@H](N)Cc1ccccc1)C(=O)CCl [FPRck] |  |  |  |  |  |  |  | decrease of specific activity of tissue factor (tissue factor; 1.0 mM, 24 hours): 10-20% |
| Biotinyl-ε-aminocaproyl-L-tyrosylglycyl-L-arginine chloromethyl ketone [BC-YGR-CK] | Identical results | Identical results | Identical results | Identical results | Identical results | Identical results | Identical results | factor VIIa remaining after treatment and avidin matrix, gel analysis (factor VIIa): no factor VIIa remained; also recorded: no contamination with factor VIIa; biotinylated proteins on blot of activated plasma (activated human plasma): several biotinylated proteins |
| CN(C)c1ccc2cc(S(=O)(=O)N[C@H](Cc3ccccc3)C(=O)N3CCC[C@H]3C(=O)N[C@@H](CCCNC(=N)N)C(=O)CCl)ccc2c1.Cl [2,6-dansyl-FPRck.HCl, 6-Dimethylaminonapthalene-2-sulfonyl-D-phenylalanyl-L-prolyl-L-arginine chloromethyl ketone hydrochloride] |  |  |  |  |  |  |  | blocking of reaction of thrombin with S2238 (thrombin): rapidly blocked |
